According to patent US20260216108A1, “PHARMACEUTICAL COMPOSITION CONTAINING A MITOPHAGY INDUCER” (HANGZHOU PHECDAMED CO., LTD., priority 2023, published 2026):

Assay: Compatibility test of API and auxiliary materials: relevant substances (impurities) by HPLC
Format: physicochemical
Details: for Change of relevant substance (in words): 30 days
Protocol: 4. Using HPLC method to detect the content of the sample and relevant substances.
The parameters of the HPLC method for the detection of the content and relevant substances are detailed in Table 2 below.
Placing the samples under experimental conditions of high temperature (60° C.), high humidity (92.5% RH), acceleration (40° C./75% RH) and illumination (visible light 5500 Lux±500 Lux, near ultraviolet light 85 μw/cm2), […] Submitting the samples for relevant indicator testing (test items include appearance, hygroscopic weight gain, content and relevant substances), and comparing the test results with the control samples (raw material).

- % Impurities RRT0.46 (60° C., opened, 30 d): <0.05%
- % Impurities RRT0.89 (60° C., opened, 30 d): 0.07%
- % Impurities RRT1.16 (60° C., opened, 30 d): 0.87%
- % Impurities RRT1.20 (60° C., opened, 30 d): 0.06%
- % Impurities RRT1.29 (60° C., opened, 30 d): 0.18%
- % Impurities RRT1.33 (60° C., opened, 30 d): 0.07%
- % Impurities RRT1.37 (60° C., opened, 30 d): 0.06%
- % Impurities RRT1.41 (60° C., opened, 30 d): <0.05%
- % Impurities RRT1.73 (60° C., opened, 30 d): <0.05%
- % Impurities RRT1.74 (60° C., opened, 30 d): 0.09%
- % Impurities Total (60° C., opened, 30 d): 1.40%
- % Impurities RRT0.46 (92.5% RH, opened, 0 d): <0.05%
- % Impurities RRT0.89 (92.5% RH, opened, 0 d): 0.08%
- % Impurities RRT1.10 (92.5% RH, opened, 0 d): <0.05%
- % Impurities RRT1.16 (92.5% RH, opened, 0 d): 0.88%
- % Impurities RRT1.20 (92.5% RH, opened, 0 d): 0.09%
- % Impurities RRT1.24 (92.5% RH, opened, 0 d): <0.05%
- % Impurities RRT1.29 (92.5% RH, opened, 0 d): 0.14%
- % Impurities RRT1.33 (92.5% RH, opened, 0 d): 0.10%
- % Impurities RRT1.37 (92.5% RH, opened, 0 d): 0.07%
- % Impurities RRT1.41 (92.5% RH, opened, 0 d): <0.05%
- % Impurities RRT1.43 (92.5% RH, opened, 0 d): <0.05%
- % Impurities RRT1.73 (92.5% RH, opened, 0 d): <0.05%
- % Impurities RRT1.74 (92.5% RH, opened, 0 d): 0.05%
- % Impurities Total (92.5% RH, opened, 0 d): 1.41%
- % Impurities RRT0.37 (92.5% RH, opened, 10 d): <0.05%
- % Impurities RRT0.46 (92.5% RH, opened, 10 d): 0.10%
- % Impurities RRT0.89 (92.5% RH, opened, 10 d): 0.14%
- % Impurities RRT1.10 (92.5% RH, opened, 10 d): <0.05%
- % Impurities RRT1.16 (92.5% RH, opened, 10 d): 1.63%
- % Impurities RRT1.20 (92.5% RH, opened, 10 d): 0.07%
- % Impurities RRT1.21 (92.5% RH, opened, 10 d): <0.05%
- % Impurities RRT1.24 (92.5% RH, opened, 10 d): <0.05%
- % Impurities RRT1.29 (92.5% RH, opened, 10 d): 0.12%
- % Impurities RRT1.33 (92.5% RH, opened, 10 d): 0.08%
- % Impurities RRT1.37 (92.5% RH, opened, 10 d): 0.07%
- % Impurities RRT1.41 (92.5% RH, opened, 10 d): 0.10%
- % Impurities RRT1.43 (92.5% RH, opened, 10 d): <0.05%
- % Impurities RRT1.54 (92.5% RH, opened, 10 d): 0.06%
- % Impurities RRT1.64 (92.5% RH, opened, 10 d): 0.13%
- % Impurities RRT1.70 (92.5% RH, opened, 10 d): <0.05%
- % Impurities RRT1.73 (92.5% RH, opened, 10 d): 0.41%
- % Impurities RRT1.74 (92.5% RH, opened, 10 d): 0.08%
- % Impurities Total (92.5% RH, opened, 10 d): 2.99%
- % Impurities RRT0.37 (92.5% RH, opened, 30 d): <0.05%
- % Impurities RRT0.46 (92.5% RH, opened, 30 d): 0.17%
- % Impurities RRT0.89 (92.5% RH, opened, 30 d): 0.12%
- % Impurities RRT1.10 (92.5% RH, opened, 30 d): <0.05%
- % Impurities RRT1.16 (92.5% RH, opened, 30 d): 1.65%
- % Impurities RRT1.20 (92.5% RH, opened, 30 d): 0.06%
- % Impurities RRT1.24 (92.5% RH, opened, 30 d): 0.05%
- % Impurities RRT1.29 (92.5% RH, opened, 30 d): 0.07%
- % Impurities RRT1.33 (92.5% RH, opened, 30 d): 0.08%
- % Impurities RRT1.37 (92.5% RH, opened, 30 d): 0.08%
- % Impurities RRT1.41 (92.5% RH, opened, 30 d): 0.09%
- % Impurities RRT1.43 (92.5% RH, opened, 30 d): 0.05%
- % Impurities RRT1.54 (92.5% RH, opened, 30 d): <0.05%
- % Impurities RRT1.64 (92.5% RH, opened, 30 d): 0.21%
- % Impurities RRT1.70 (92.5% RH, opened, 30 d): 0.05%
- % Impurities RRT1.73 (92.5% RH, opened, 30 d): 0.53%
- % Impurities RRT1.74 (92.5% RH, opened, 30 d): 0.10%
- % Impurities Total (92.5% RH, opened, 30 d): 3.31%
- % Impurities RRT0.46 (Illumination, opened, 0 d): <0.05%
- % Impurities RRT0.89 (Illumination, opened, 0 d): 0.08%
- % Impurities RRT1.16 (Illumination, opened, 0 d): 0.88%
- % Impurities RRT1.20 (Illumination, opened, 0 d): 0.09%
- % Impurities RRT1.29 (Illumination, opened, 0 d): 0.14%
- % Impurities RRT1.33 (Illumination, opened, 0 d): 0.10%
- % Impurities RRT1.37 (Illumination, opened, 0 d): 0.07%
- % Impurities RRT1.41 (Illumination, opened, 0 d): <0.05%
- % Impurities RRT1.73 (Illumination, opened, 0 d): <0.05%
- % Impurities RRT1.74 (Illumination, opened, 0 d): 0.05%
- % Impurities Total (Illumination, opened, 0 d): 1.41%
- % Impurities RRT0.46 (Illumination, opened, 10 d): 0.06%
- % Impurities RRT0.89 (Illumination, opened, 10 d): 0.17%
- % Impurities RRT1.16 (Illumination, opened, 10 d): 0.91%
- % Impurities RRT1.20 (Illumination, opened, 10 d): 0.08%
- % Impurities RRT1.29 (Illumination, opened, 10 d): 0.20%
- % Impurities RRT1.33 (Illumination, opened, 10 d): 0.09%
- % Impurities RRT1.37 (Illumination, opened, 10 d): 0.07%
- % Impurities RRT1.41 (Illumination, opened, 10 d): <0.05%
- % Impurities RRT1.73 (Illumination, opened, 10 d): 0.05%
- % Impurities RRT1.74 (Illumination, opened, 10 d): 0.07%
- % Impurities Total (Illumination, opened, 10 d): 1.70%
Compound: O=C(O)C[S+]([O-])c1cc(NS(=O)(=O)c2ccc(Br)cc2)c2ccccc2c1O (stereo not shown) [API]
- Change of relevant substance (in words) (acceleration 40° C./75% RH, opened): increased significantly at RRT0.46, RRT1.16, RRT1.63 and RRT1.73, and increased slightly at RRT1.41 and RRT1.43
- Stability of API (summary) (compatibility test of raw and auxiliary materials): unstable under the conditions of high humidity, illumination and acceleration
- Change of relevant substance (in words) (high humidity 92.5% RH, opened): increased significantly at RRT0.46, RRT1.16, RRT1.64 and RRT1.73, and increased slightly at RRT1.41 and RRT1.74
- Change of relevant substance (in words) (illumination, opened): increased slightly at RRT 0.89 and RRT 1.29
